The test system of assay [1] is demyelination model mice (0.2% cuprizone). As to the kind of experiment: Myelin level by Black Gold staining in cuprizone demyelination model mice (Example 1). Type of assay: in vivo, C57BL/6 mice. As to conditions: intraperitoneal 40 μg/200 μl saline/day for 5 weeks, FIG. 2. The method, then:
10-week-old male C57BL/6 mice were fed with a mash feed containing 0.2% cuprizone for five weeks until the most significant demyelination occurred, so as to produce demyelination model mice. cPA and carba-cPA (cPA) powders were each dissolved in a saline, and the obtained solutions were each administered intraperitoneally at a dose of 40 μg/200 μl saline/day to the mice every day for 5 weeks. On the other hand, to negative control mice, a saline (200 μl/day) was intraperitoneally administered in the same manner as described above. The mice, to which the test compound had been administered, were subjected to perfusion fixation with 4% paraformaldehyde, and sections to be used for frozen tissue staining (30 μm) were then prepared in a cryostat (FIG. 1). The level of myelin in each mouse was measured by Black Gold staining, and the demyelination level was then measured based on the stained level (FIG. 2).

Assay [2] deals with demyelination model mice (0.2% cuprizone), corpus callosum. The assay is described as follows: Histological staining (Black Gold II) of corpus callosum and evaluation of demyelination (Example 2). Type of assay: in vivo, C57BL/6j mice. As to conditions: intraperitoneal 1.6 mg/kg/day for 5 weeks, FIG. 3, FIG. 4. From the text:
10-week-old male C57BL/6j mice (Tokyo Laboratory Animals Science Co., Ltd., Tokyo, Japan) were fed by the discretionary intake of a mash feed (CLEA Japan, Inc.) that contained 0.2% cuprizone (biscyclohexanone oxalyl hydrazone; Merck KGaA, Darmstadt, Germany) for 5 weeks until demyelination progressed most, so as to produce demyelination model mice involving demyelination caused by oligodendrocyte-specific cell death. To obtain tissues to be used for histological analysis, a mouse was subjected to perfusion fixation through the heart with 4% paraformaldehyde, and the resulting brain tissues were then excised from the mouse. Thereafter, the tissues were immobilized and infiltrated with 30% sucrose. Thereafter, a frozen tissue block was prepared and was then sliced in a cryostat. The cPA used in the experiment was the same cPA (16:0) as that used in Example 1, and the carba-cPA was 2 ccPA (16:1). The cPA and 2 ccPA were chemically purified (Biochimica et Biophysica Acta, Emi Nozaki 2011), and were then dissolved in a 0.9% saline. […] For the analysis of the level of myelin, using Image J 1.46r software, the stained level in the corpus callosum area was measured, and the demyelination level was then evaluated, while setting the control as 100%.

Assay [3] has as its system GFAP, Iba1, PDGFRa, P2rx7, Nlrp3 gene expression in corpus callosum. The assay is described as follows: Genetic analysis using Q-PCR of corpus callosum tissues. Type of assay: in vivo, C57BL/6j mice. As to conditions: cuprizone mice; intraperitoneal 1.6 mg/kg/day for 5 weeks; FIG. 6-8. The source says:
10-week-old male C57BL/6j mice (Tokyo Laboratory Animals Science Co., Ltd., Tokyo, Japan) were fed by the discretionary intake of a mash feed (CLEA Japan, Inc.) that contained 0.2% cuprizone (biscyclohexanone oxalyl hydrazone; Merck KGaA, Darmstadt, Germany) for 5 weeks until demyelination progressed most, so as to produce demyelination model mice involving demyelination caused by oligodendrocyte-specific cell death.
To obtain mouse corpus callosum tissues to be used for genetic analysis, mouse brain was removed, and the corpus callosum tissues were then collected from the brain. […]
mRNA was extracted from the frozen corpus callosum tissues using ISOGEN (Nippon Gene Co., Ltd., Tokyo, Japan), was then dissolved in RNase free molecular grade water (Takara Bio Inc., Shiga, Japan), and was then preserved at −80° C. […] Gene expression was detected using 7900 Sequence Detection System (Applied Biosystems). […] The gene expression level was calculated by a ΔΔCT method. Data were analyzed by a relative quantification method. A relative change in the gene expression was analyzed, while setting the gene expression level in a control mouse at 100%.

On to `CCCCCCCCCCCCCCCC(=O)OCC1COP(=O)(O)O1` (stereo not drawn) [cPA], for which the “level of myelin (Black Gold staining) versus control mouse” value in assay [1] is given as “higher than the level of myelin in a control mouse”. In assay [2], the “demyelination level in corpus callosum (Black Gold II staining)” value is “demyelination is suppressed”. The “nerve inflammation (gene expression by Q-PCR)” value in assay [3] is listed as “nerve inflammation is suppressed”.

For the origin of these results see patent US10413559B2, “Method for treating demyelinating disease” (OCHANOMIZU UNIVERSITY, priority 2013, dated 2019).
